The target of one test is recombinant IDO1 (Homo sapiens, UniProt P14902). The test is described as follows: IDO1 enzymatic assay (UV absorption, N-formylkynurenine formation). The format is biochemical. The conditions noted are these: for IC50: 40 nM IDO1, 900 μM tryptophan, 180 min, room temperature, read-out: Enzyme IDO IC50; for Enzyme IDO IC50 ratio compared to Cmpd 2: IC50 of compound divided by IC50 of reference compound 2. As for the experimental part:
(§1) The assay was performed by UV absorption using either recombinant IDO1 or TDO2 and L-Tryptophan as substrate. The UV absorption signal at 321 nm was correlated with the amount of N-formylkynurenine reaction product of IDO1 and TDO2.
(§2) The compounds of the present application were diluted in 10% DMSO and 5 μl of the dilution was added to a 100 μl reaction so that the final concentration of DMSO is 0.5% in all reactions.
IDO1 Assay: All of the reactions were conducted at room temperature. The 100 μl reaction mixture in IDO Assay Buffer contains 40 nM IDO1, the indicated amount of the compound, 900 μM tryptophan, and the coupled reaction components. The reaction mixture was incubated for 180 min prior to reading of the UV absorption signal. For the negative control (blank), 5 μl of the assay buffer was added instead of the IDO1.
(§3) Absorption signals were measured using a Tecan Infinite M1000 plate reader.
(§4) Data analysis: Binding experiments were performed in duplicate at each concentration. The data were analyzed using the computer software, Graphpad Prism. In the absence of the compound, the absorption signal (At) in each data set was defined as 100% activity. In the absence of the IDO1, the absorption signal (Ab) in each data set was defined as 0% activity. The percent activity in the presence of each compound was calculated according to the following equation: % activity=[(A−Ab)/(At−Ab)]×100, where A=the absorption signal in the presence of the compound. The percent inhibition was calculated according to the following equation: % inhibition=100−% activity. The values of % activity versus a series of compound concentrations were then plotted using non-linear regression analysis of Sigmoidal dose-response curve generated with the equation Y=B+(T−B)/1+10^((LogIC50−X)×Hill Slope), where Y=percent activity, B=minimum percent activity, T=maximum percent activity, X=logarithm of compound and Hill Slope=slope factor or Hill coefficient. The IC50 value was determined by the concentration causing a half-maximal percent activity.

In another test the target is recombinant TDO2 (Homo sapiens, UniProt P48775). The test can be described thus: TDO2 enzymatic assay (UV absorption, N-formylkynurenine formation). The format is biochemical. The following applies: for IC50: 50 nM TDO2, 200 μM tryptophan, 60 min, room temperature, read-out: Enzyme TDO IC50; for Enzyme TDO IC50 ratio compared to Ref. Cmpd 1: IC50 of compound divided by IC50 of Ref. Cmpd 1. As for the experimental part:
as §1, §2
TDO2 Assay: All of the reactions were conducted at room temperature. The 100 μl reaction mixture in TDO2 Assay Buffer contains 50 nM TDO2, the indicated amount of the compound, 200 μM tryptophan, and the coupled reaction components. The reaction mixture was incubated for 60 min prior to reading of the UV absorption signal. For the negative control (blank), 5 μl of the assay buffer was added instead of the TDO2.
as §3
as §4, with “The percent inhibition was calculated according to the following equation: % inhibition=100−% activity.” left out

By IC50 is commonly meant the concentration that gives 50% inhibition.

recombinant TDO2, sequence (P48775 whole entry, species assumed): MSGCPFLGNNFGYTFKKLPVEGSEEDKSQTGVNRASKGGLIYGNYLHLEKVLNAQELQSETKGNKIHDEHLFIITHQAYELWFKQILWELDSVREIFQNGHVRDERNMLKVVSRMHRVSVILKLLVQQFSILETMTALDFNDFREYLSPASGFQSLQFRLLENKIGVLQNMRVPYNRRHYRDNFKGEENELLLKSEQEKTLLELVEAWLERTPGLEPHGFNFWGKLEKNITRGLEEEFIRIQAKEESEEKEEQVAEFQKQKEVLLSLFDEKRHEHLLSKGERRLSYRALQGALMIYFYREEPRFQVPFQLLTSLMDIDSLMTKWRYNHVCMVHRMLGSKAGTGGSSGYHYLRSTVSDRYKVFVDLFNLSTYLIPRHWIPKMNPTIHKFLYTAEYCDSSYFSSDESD
recombinant IDO1, sequence (P14902 whole entry, species assumed): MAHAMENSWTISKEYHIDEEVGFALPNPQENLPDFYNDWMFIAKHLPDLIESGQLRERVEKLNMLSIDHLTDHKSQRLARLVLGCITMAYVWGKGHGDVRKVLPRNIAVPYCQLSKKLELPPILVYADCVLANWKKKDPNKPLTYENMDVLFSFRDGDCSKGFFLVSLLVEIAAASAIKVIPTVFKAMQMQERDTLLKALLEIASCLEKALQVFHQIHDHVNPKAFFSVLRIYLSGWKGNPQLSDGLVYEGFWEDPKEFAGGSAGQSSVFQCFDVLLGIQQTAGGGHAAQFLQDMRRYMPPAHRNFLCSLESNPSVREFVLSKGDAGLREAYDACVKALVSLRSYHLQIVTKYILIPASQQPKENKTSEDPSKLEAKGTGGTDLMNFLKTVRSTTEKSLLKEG

`OC1CCC(C(F)CC2Cc3ccccc3-c3cncn32)CC1` (centres unmarked) [Cmpd 310]: on recombinant IDO1, the IC50 stood at 1.2 µM and the “Enzyme IDO IC50 ratio compared to Cmpd 2” value turned out to be 32.43. Moreover, at recombinant TDO2, the IC50 came to 1.9 µM and the “Enzyme TDO IC50 ratio compared to Ref. Cmpd 1” value (shortened to “Enzyme TDO IC50 ratio”) is 5.67.
`FC(CC1Cn2cncc2-c2ccccc21)C1CCCCC1` (centres unmarked) [Cmpd 307]: on recombinant IDO1, the IC50 came to 0.299 µM and the “Enzyme IDO IC50 ratio compared to Cmpd 2” value was determined as 7.29. In addition, on recombinant TDO2, the concentration for half-maximal inhibition (IC50) was determined as 0.052 µM and the “Enzyme TDO IC50 ratio” value is on record as 0.25.
`OC1CCC(C(O)CC2(C(F)(F)F)c3c(F)cccc3-c3cncn32)CC1` (centres unmarked) [Cmpd 292]: the IC50 on recombinant IDO1 and on recombinant TDO2 was above 100 µM throughout.
As to `OC(CCc1c(F)cccc1-c1c[nH]cn1)C1CCCCC1` (centres unmarked) [Cmpd 302], at recombinant IDO1, the IC50 stood at 19.9 µM and the “Enzyme IDO IC50 ratio compared to Cmpd 2” value was found to be 226.14. Also, on recombinant TDO2, the IC50 is 15.5 µM and the “Enzyme TDO IC50 ratio” value stood at 19.33.
`CC1c2ccccc2-c2cncn2C1C(O)C1CCCCC1` (centres unmarked) [Cmpd 295]: on recombinant IDO1, the IC50 worked out at 14.5 µM and the “Enzyme IDO IC50 ratio compared to Cmpd 2” value is 216.42. At recombinant TDO2, the IC50 came to 8.4 µM and the “Enzyme TDO IC50 ratio” value amounted to 8.40.
`OC1c2ccccc2C(CC(O)C2CCCCC2)n2cncc21` (centres unmarked) [Cmpd 298]: the IC50 at recombinant IDO1 and at recombinant TDO2 was above 30 µM each time.
For `OC(CC1C(O)c2ccccc2-c2cncn21)C1CCCCC1` (centres unmarked) [Cmpd 309], on recombinant IDO1, the IC50 came to 5.5 µM and the “Enzyme IDO IC50 ratio compared to Cmpd 2” value is on record as 105.77. On recombinant TDO2, the IC50 is 7.6 µM and the “Enzyme TDO IC50 ratio” value came to 33.33.
For `FC(CC1Cc2ccccc2-c2cncn21)C1CCCCC1` (centres unmarked) [Cmpd 311], at recombinant IDO1, the IC50 was 0.31 µM and the “Enzyme IDO IC50 ratio compared to Cmpd 2” value was 8.38. On recombinant TDO2, the half-maximal inhibitory concentration (IC50) is 0.111 µM and the “Enzyme TDO IC50 ratio” value is recorded as 0.33.
Consider `OC1CCC(C(O)CC2(C(F)(F)F)c3c(F)cccc3-c3cncn32)CC1` (centres unmarked) [Cmpd 293], for which the 50% inhibitory concentration (IC50) at recombinant IDO1 and at recombinant TDO2 was above 100 µM in each case.
In the case of `CC1(CC(O)C2CCCCC2)c2ccccc2-c2cncn21` (centres unmarked) [Cmpd 296], on recombinant IDO1, the IC50 is 13.1 µM and the “Enzyme IDO IC50 ratio compared to Cmpd 2” value was found to be 195.52. Moreover, on recombinant TDO2, the concentration for half-maximal inhibition (IC50) came out at 2.3 µM and the “Enzyme TDO IC50 ratio” value is listed as 2.30.
Turning to `CC1c2ccccc2-c2cncn2C1C(O)C1CCCCC1` (centres unmarked) [Cmpd 294], the IC50 at recombinant IDO1 and on recombinant TDO2 was above 30 µM in each case.
Turning to `OC(CC1(C(F)(F)F)c2ccccc2-c2cncn21)C1CCCCC1` (centres unmarked) [Cmpd 291], the half-inhibitory concentration (IC50) on recombinant IDO1 was above 100 µM; at recombinant TDO2 it was 26 µM. The “Enzyme TDO IC50 ratio” value on recombinant TDO2 is 16.25.
`O[C@@H](C[C@H]1Cn2cncc2-c2ccccc21)C1CCCCC1` (racemic) [Cmpd 305]: on recombinant IDO1, the half-maximal inhibitory concentration (IC50) is 0.328 µM and the “Enzyme IDO IC50 ratio compared to Cmpd 2” value came to 8.00. At recombinant TDO2, the IC50 stood at 0.166 µM and the “Enzyme TDO IC50 ratio” value stood at 0.78.
`OC(CC1CCc2ccccc2-c2cncn21)C1CCCCC1` (centres unmarked) [Cmpd 279]: on recombinant IDO1, the IC50 worked out at 7.1 µM and the “Enzyme IDO IC50 ratio compared to Cmpd 2” value worked out at 165.12. Moreover, at recombinant TDO2, the IC50 is 2.36 µM and the “Enzyme TDO IC50 ratio” value is on record as 6.21.
As to `OC(C1CCCCC1)C1CC1c1c(F)cccc1-c1c[nH]cn1` (centres unmarked) [Cmpd 304], on recombinant IDO1, the IC50 was 12.5 µM and the “Enzyme IDO IC50 ratio compared to Cmpd 2” value worked out at 142.05. Also, at recombinant TDO2, the IC50 worked out at 3.1 µM and the “Enzyme TDO IC50 ratio” value is recorded as 3.87.
For `OC(CC1Cc2ccccc2-c2cncn21)C1CCCCC1` (centres unmarked) [Cmpd 278], on recombinant IDO1, the half-maximal inhibitory concentration (IC50) worked out at 0.149 µM and the “Enzyme IDO IC50 ratio compared to Cmpd 2” value is recorded as 3.47. Also, at recombinant TDO2, the IC50 came to 0.165 µM and the “Enzyme TDO IC50 ratio” value was 0.43.
Regarding `FC(CC1Cc2ccccc2-c2cncn21)C1CCCCC1` (centres unmarked) [Cmpd 312], on recombinant IDO1, the IC50 was determined as 0.049 µM and the “Enzyme IDO IC50 ratio compared to Cmpd 2” value came to 1.32. Moreover, at recombinant TDO2, the half-inhibitory concentration (IC50) came to 0.078 µM and the “Enzyme TDO IC50 ratio” value came out at 0.23.
The matching figures for `OC(CC1c2ccccc2Cc2cncn21)C1CCCCC1` (centres unmarked) [Cmpd 297]: 14 µM, 129.63, 2.2 µM and 6.90.
In the case of `OC(CC1(C(F)(F)F)c2ccccc2-c2cncn21)C1CCCCC1` (single isomer, unassigned) [Cmpd 290], the IC50 at recombinant IDO1 is above 100 µM. Besides, at recombinant TDO2, the “Enzyme TDO IC50 ratio” value is recorded as 18.75.
For the compound `OC(/C=C/c1c(F)cccc1-c1c[nH]cn1)C1CCCCC1` (centres unmarked) [Cmpd 303], the IC50 on recombinant IDO1 was above 30 µM. Also, on recombinant TDO2, the IC50 stood at 9.2 µM and the “Enzyme TDO IC50 ratio” value was 11.47.
Consider `O[C@@H](C[C@@H]1Cn2cncc2-c2ccccc21)C1CCCCC1` (racemic) [Cmpd 306], for which, on recombinant IDO1, the IC50 was determined as 1.2 µM and the “Enzyme IDO IC50 ratio compared to Cmpd 2” value is reported as 29.27. At recombinant TDO2, the IC50 worked out at 0.286 µM and the “Enzyme TDO IC50 ratio” value stood at 1.35.
With `OC(CC1C(O)c2ccccc2-c2cncn21)C1CCCCC1` (centres unmarked) [Cmpd 308], at recombinant IDO1, the IC50 amounted to 23 µM and the “Enzyme IDO IC50 ratio compared to Cmpd 2” value was found to be 442.31. On recombinant TDO2, the IC50 was 14.2 µM and the “Enzyme TDO IC50 ratio” value came out at 62.28.
In the case of `FC(CC1Cc2ccccc2-c2cncn21)C1CCCCC1` (centres unmarked) [Cmpd 301], on recombinant IDO1, the IC50 was 0.133 µM and the “Enzyme IDO IC50 ratio compared to Cmpd 2” value is recorded as 1.51. Moreover, at recombinant TDO2, the IC50 was determined as 0.096 µM and the “Enzyme TDO IC50 ratio” value was 0.12.

The record behind these values is US10308647B2, “Fused imidazole derivatives as IDO/TDO inhibitors” (SciFluor Life Sciences, Inc., priority 2015, dated 2019).
